Laboratory results taken from PubChem BioAssay (NCI).
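Five concentrations, 48 hours, 96-well plates. GI50: concentration for 50% inhibition of growth. TGI marks complete inhibition of growth.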

Key:
Experiment in all cases: DTP human tumour cell line panel, 48 h
[1] = system: SW-620 colon
[2] = system: OVCAR-8 ovarian
[3] = system: SK-MEL-2 melanoma
[4] = system: MDA-N
[5] = system: MOLT-4 leukemia
[6] = system: MALME-3M melanoma
[7] = system: TK-10 renal
[8] = system: NCI-H460 lung
[9] = system: HCT-15 colon
[10] = system: MDA-MB-435
[11] = system: A498 renal
[12] = system: EKVX NSCLC
[13] = system: SF-295 CNS
[14] = system: U251 CNS
[15] = system: SNB-19 CNS
[16] = system: SK-MEL-28 melanoma
[17] = system: MCF7 breast
[18] = system: ACHN renal
[19] = system: SR leukemia
[20] = system: UACC-62 melanoma
[21] = system: 786-0 renal
[22] = system: RXF 393 renal
[23] = system: HCT-116 colon
[24] = system: SF-268 CNS
[25] = system: HS 578T breast
[26] = system: OVCAR-3 ovarian
[27] = system: SF-539 CNS
[28] = system: NCI-H226 lung
[29] = system: LOX IMVI melanoma
[30] = system: SK-OV-3 ovarian
[31] = system: MDA-MB-231 breast
[32] = system: OVCAR-4 ovarian
[33] = system: NCI/ADR-RES ovarian
[34] = system: HT29 colon
[35] = system: UO-31 renal
[36] = system: IGROV1 ovarian
[37] = system: T-47D breast
[38] = system: A549 NSCLC
[39] = system: SK-MEL-5 melanoma
[40] = system: NCI-H23 lung
[41] = system: UACC-257 melanoma
[42] = system: COLO 205 colon
[43] = system: HOP-92 NSCLC
[44] = system: HL-60(TB) leukemia
[45] = system: NCI-H522 lung
[46] = system: PC-3 prostate
[47] = system: SN12C renal
[48] = system: KM12 colon
[49] = system: K-562 leukemia
[50] = system: DU-145 prostate
[51] = system: OVCAR-5 ovarian
[52] = system: SNB-75 CNS
[53] = system: HOP-62 NSCLC
[54] = system: M14 melanoma
[55] = system: CAKI-1 renal
[56] = system: BT-549 breast
[57] = system: RPMI-8226 leukemia
[58] = system: CCRF-CEM leukemia
[59] = system: HCC-2998 colon

## COc1cc2c3c(n(C)c(=O)c2cc1OC)-c1cc2c(cc1/C3=C\CCCBr)OCO2
[1]
  GI50: > 100 µM
  TGI: > 100 µM
[2]
  TGI: > 48.7 µM
[3]
  GI50: 21.3 µM
  TGI: 69.4 µM
[4]
  GI50: > 100 µM
  TGI: > 100 µM
[5]
  GI50: 21.4 µM
  TGI: > 66.2 µM
[6]
  GI50: 7.2 µM
  TGI: > 45.4 µM
[7]
  GI50: 15.2 µM
  TGI: > 53.4 µM
[8]
  GI50: 26.9 µM
  TGI: > 100 µM
[9]
  GI50: 34.8 µM
  TGI: > 86.8 µM
[10]
  GI50: > 100 µM
  TGI: > 100 µM
[11]
  GI50: 26.3 µM
  TGI: 68.9 µM
[12]
  GI50: 15.6 µM
  TGI: > 62.5 µM
[13]
  GI50: 9.16 µM
  TGI: 30.8 µM
[14]
  GI50: 13.2 µM
  TGI: > 60.3 µM
[15]
  GI50: 23.4 µM
  TGI: > 65.8 µM
[16]
  GI50: > 100 µM
  TGI: > 100 µM
[17]
  GI50: 16.2 µM
  TGI: > 64.8 µM
[18]
  GI50: 7.37 µM
  TGI: 25.3 µM
[19]
  GI50: 13.3 µM
  TGI: > 100 µM
[20]
  GI50: 7.55 µM
  TGI: 28.9 µM
[21]
  GI50: 8.5 µM
  TGI: > 40.2 µM
[22]
  GI50: 6.35 µM
  TGI: 16.8 µM
[23]
  GI50: 27.2 µM
  TGI: > 60.8 µM
[24]
  GI50: 16.1 µM
  TGI: > 54.8 µM
[25]
  GI50: 14.4 µM
  TGI: > 57.4 µM
[26]
  GI50: > 92.2 µM
  TGI: > 100 µM
[27]
  GI50: 10.3 µM
  TGI: > 41.6 µM
[28]
  GI50: 77.5 µM
  TGI: > 100 µM
[29]
  GI50: 42 µM
  TGI: > 100 µM
[30]
  GI50: 18.1 µM
  TGI: 44.8 µM
[31]
  GI50: 9.16 µM
  TGI: > 45.3 µM
[32]
  GI50: 39.2 µM
  TGI: > 100 µM
[33]
  TGI: > 100 µM
[34]
  GI50: > 100 µM
  TGI: > 100 µM
[35]
  GI50: > 49.7 µM
  TGI: > 100 µM
[36]
  GI50: 28.5 µM
  TGI: > 100 µM
[37]
  GI50: > 91.3 µM
  TGI: > 100 µM
[38]
  GI50: > 100 µM
  TGI: > 100 µM
[39]
  GI50: > 69.5 µM
  TGI: > 100 µM
[40]
  GI50: 19.6 µM
  TGI: 49.6 µM
[41]
  GI50: > 41.5 µM
  TGI: > 100 µM
[42]
  GI50: 18.8 µM
  TGI: 55.8 µM
[43]
  GI50: 92.4 µM
  TGI: > 100 µM
[44]
  GI50: > 80.3 µM
  TGI: > 100 µM
[45]
  TGI: > 30.2 µM
[46]
  GI50: > 95.2 µM
  TGI: > 100 µM
[47]
  GI50: > 100 µM
  TGI: > 100 µM
[48]
  GI50: > 100 µM
  TGI: > 100 µM
[49]
  GI50: 58.3 µM
  TGI: > 100 µM
[50]
  GI50: > 59.6 µM
  TGI: > 100 µM
[51]
  GI50: 19.3 µM
  TGI: > 70.6 µM
[52]
  GI50: 0.398 µM
  TGI: 12.8 µM
[53]
  TGI: 17.1 µM
[54]
  GI50: > 96.6 µM
  TGI: > 100 µM
[55]
  GI50: 48.1 µM
  TGI: > 100 µM
[56]
  GI50: > 20.5 µM
  TGI: > 51.9 µM
[57]
  GI50: 29.1 µM
  TGI: > 100 µM
[58]
  GI50: 14.3 µM
  TGI: 50.3 µM
[59]
  TGI: > 51.3 µM

## O=C(Nc1ccccc1C(=O)O)/C(=C/c1ccccc1)NC(=O)c1ccccc1
[1]
  TGI: > 100 µM
[2]
  TGI: > 100 µM
[3]
  TGI: > 100 µM
[4]
  TGI: > 100 µM
[5]
  TGI: > 100 µM
[6]
  TGI: > 100 µM
[8]
  TGI: > 100 µM
[9]
  TGI: > 100 µM
[10]
  TGI: > 100 µM
[11]
  TGI: > 100 µM
[12]
  TGI: > 100 µM
[13]
  TGI: > 100 µM
[14]
  TGI: > 100 µM
[15]
  TGI: > 100 µM
[16]
  TGI: > 100 µM
[17]
  TGI: > 100 µM
[18]
  TGI: > 100 µM
[19]
  TGI: > 100 µM
[20]
  TGI: > 100 µM
[21]
  TGI: > 100 µM
[22]
  TGI: > 100 µM
[23]
  TGI: > 100 µM
[24]
  TGI: > 100 µM
[25]
  TGI: > 100 µM
[26]
  TGI: > 100 µM
[27]
  TGI: > 100 µM
[28]
  TGI: > 100 µM
[29]
  TGI: > 100 µM
[30]
  TGI: > 100 µM
[31]
  TGI: > 100 µM
[33]
  TGI: > 100 µM
[34]
  TGI: > 100 µM
[35]
  TGI: > 100 µM
[36]
  TGI: > 100 µM
[37]
  TGI: > 100 µM
[38]
  TGI: > 100 µM
[39]
  TGI: > 100 µM
[40]
  TGI: > 100 µM
[41]
  TGI: > 100 µM
[42]
  TGI: > 100 µM
[43]
  TGI: > 100 µM
[44]
  TGI: > 100 µM
[45]
  TGI: > 100 µM
[46]
  TGI: > 100 µM
[47]
  TGI: > 100 µM
[48]
  TGI: > 100 µM
[49]
  TGI: > 100 µM
[50]
  TGI: > 100 µM
[51]
  TGI: > 100 µM
[52]
  TGI: > 100 µM
[53]
  TGI: > 100 µM
[54]
  TGI: > 100 µM
[55]
  TGI: > 100 µM
[56]
  TGI: > 100 µM
[57]
  TGI: > 100 µM
[58]
  TGI: > 100 µM
[59]
  TGI: > 100 µM
